One may read the mortality as the percentage killed.

Structures are written as SMILES.

Data set [1] relates to Varroa mites. As to the kind of experiment: whole plant or invertebrate. Particulars: for mite mortality: 24 h; for statistically significant mite mortality (Kruskal-Wallis): at 24 h, 100 mg/mL, 250 mg/mL, 1 g/mL tested, 15, 30 or 45 min exposure. On the procedure:
Efficacy of 12 caffeic and ferulic acid/ester molecules (caffeic acid, ferulic acid, caffeic acid cinnamyl ester, caffeic acid phenethyl ester, caffeic acid 3-methyl-3-butenyl ester, caffeic acid 3-methyl-2-butenyl ester, caffeic acid benzyl ester, ferulic acid cinnamyl ester, ferulic acid phenethyl ester, ferulic acid 3-methyl-3-butenyl ester, ferulic acid 3-methyl-2-butenyl ester, ferulic acid benzyl ester) against Varroa mites in a laboratory assay was determined. Adult female mites were collected from a single honey bee colony by uncapping drone cells and removing the mites to avoid injury that might occur if other methods (e.g., sugar shake) were used. Mites lacking vigor were discarded prior to experiment. Varroa were removed from single-age pupae, randomized, and placed in groups of ten in a sealed chamber. They were left in an incubator with pupae. After a set amount of time, the Varroa were transferred to a chamber with a potential miticide. The effects of each miticide were evaluated both through contact and through vapor. Concentrations and contact time were also evaluated. The Varroa were then transferred back to their chamber in the incubator and checked for mortality (each experiment in triplicate). […] Treatments were tested for their efficacy in repelling and killing mites.
To test for contact-phase miticidal activity, 250 μl of each treatment was evenly applied to a Whatman No. 4 filter paper in a Petri dish. The paper was allowed to completely dry before the assay and then it was adhered to the bottom of the dish. Ten mites per treatment were placed directly on the filter paper and the mites were kept in the dish for either 15 min, 30 min, or 45 min. After the initial time period, all mites were transferred into a sterile Petri dish and maintained in an incubator for 30 h. Each hour the mites were removed and observed under a dissecting lens. Each treatment concentration and exposure period was repeated three times.
Statistical analysis for repellency was conducted on the mean number of mites repelled and was compared by a two-way ANOVA. […] Percent mortality was compared between treatments by a non-parametric Kruskal-Wallis test.

Data set [2] has as its system Varroa mites. The experiment in a line: Example 2: mites exposed to filter paper impregnated with the caffeic ester family, mite mortality and activity. Also on record: species or system Varroa destructor. Particulars: assessed 6 h, 24 h, 30 h post exposure; various concentrations and exposure times. How it is done: In a series of assays, Whatman filter paper was impregnated with various concentrations of the caffeic ester family of molecules. Varroa mites were freshly harvested from brood frames and then directly exposed to the substrate. The exposure time was varied across different experiments. The Varroa mites were removed and placed into an incubator with pupae to feed on. Mite mortality and mite activity was assessed at several time points (6 h, 24 h, 30 h) post exposure.

As to `O=C(/C=C/c1ccc(O)c(O)c1)OCC=Cc1ccccc1` [caffeic acid cinnamyl ester], the mite mortality entry in the data set with Varroa mites [1] was “over 60%”.

`O=C(/C=C/c1ccc(O)c(O)c1)OCCc1ccccc1` [caffeic acid phenethyl ester]: the “relative efficacy (mite mortality and activity)” value with Varroa mites [2] is on record as “most efficacious molecule tested”.

As to `O=C(O)/C=C/c1ccc(O)c(O)c1` [caffeic acid], in the data set on Varroa mites [1], the “statistically significant mite mortality (Kruskal-Wallis)” value was “all of the molecules except caffeic acid and ferulic acid showed statistically significant mite mortality”.

With `COc1cc(/C=C/C(=O)OCC=C(C)C)ccc1O` [ferulic acid 3-methyl-2-butenyl ester], in the data set on Varroa mites [1], the mite mortality entry was “over 60%”.

In the case of `COc1cc(/C=C/C(=O)O)ccc1O` [ferulic acid], in the data set on Varroa mites [1], the “statistically significant mite mortality (Kruskal-Wallis)” value is “all of the molecules except caffeic acid and ferulic acid showed statistically significant mite mortality”.

Turning to `Cc1ccc(C(C)C)c(O)c1` [thymol, reference compound], in the data set with Varroa mites [1] (Varroa destructor, 6 h, read-out: mortality (positive control)), the mortality at 100000 µg/mL is 100%.

Values taken from patent US20190364891A1, “Chemical Compositions for Combating Honey Bee Pests and Pathogens” (Fort Lewis College, priority 2018, published 2019).
